Experimental data as given in patent US10647743B2, “Method of making biologically active alpha-beta peptides” (priority 2008, dated 2020).

Experiments:
HIV-1 NL4-3 = conditions: read-out: Inhibition of HIV-1 infectivity, IC50 (nM), X4 strains, NL4-3; TZM-bl cells; mean ± S.E.M., three experiments
HIV-1 HC4 = conditions: read-out: Inhibition of HIV-1 infectivity, IC50 (nM), X4 strains, HC4; TZM-bl cells; mean ± S.E.M., three experiments
HIV-1 CC 1/85 = conditions: read-out: Inhibition of HIV-1 infectivity, IC50 (nM), R5 strains, CC 1/85; TZM-bl cells; mean ± S.E.M., three experiments
HIV-1 DJ258 = conditions: read-out: Inhibition of HIV-1 infectivity, IC50 (nM), R5 strains, DJ258; TZM-bl cells; mean ± S.E.M., three experiments
HIV = conditions: background; read-out: anti-HIV IC50 in cell-based assays; cited from earlier work
proteinase K = proteinase K (Parengyodontium album, UniProt P06873); assay: proteinase K stability of Puma BH3 peptides
Sequence of proteinase K (P06873 106-384): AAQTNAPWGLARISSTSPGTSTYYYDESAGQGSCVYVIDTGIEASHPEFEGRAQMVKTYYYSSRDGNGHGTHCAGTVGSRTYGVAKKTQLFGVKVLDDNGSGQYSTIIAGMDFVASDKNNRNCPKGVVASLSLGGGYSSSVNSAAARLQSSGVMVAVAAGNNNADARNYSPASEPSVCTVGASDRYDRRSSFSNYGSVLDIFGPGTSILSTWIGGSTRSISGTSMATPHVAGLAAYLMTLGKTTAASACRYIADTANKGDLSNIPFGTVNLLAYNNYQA

Bcl-xL [1] = target: T1, Bcl-xL (Homo sapiens, UniProt Q07817); assay: competition FP with fluorescently labeled Bak-BH3 peptide, Bcl-xL; format: binding
T1 sequence (Q07817 whole entry, species assumed): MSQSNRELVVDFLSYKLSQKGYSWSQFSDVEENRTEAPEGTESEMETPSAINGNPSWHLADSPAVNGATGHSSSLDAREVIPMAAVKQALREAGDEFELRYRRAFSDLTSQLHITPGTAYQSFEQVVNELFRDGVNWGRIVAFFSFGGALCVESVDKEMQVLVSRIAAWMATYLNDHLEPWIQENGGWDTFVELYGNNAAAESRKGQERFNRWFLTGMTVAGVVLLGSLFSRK

Mcl-1 = Mcl-1 (Homo sapiens, UniProt Q07820); assay: direct-binding FP of BODIPY-TMR labeled analogs, Mcl-1; conditions: Table 5, BODIPY-labeled analogues
Sequence of Mcl-1 (Q07820 whole entry, species assumed): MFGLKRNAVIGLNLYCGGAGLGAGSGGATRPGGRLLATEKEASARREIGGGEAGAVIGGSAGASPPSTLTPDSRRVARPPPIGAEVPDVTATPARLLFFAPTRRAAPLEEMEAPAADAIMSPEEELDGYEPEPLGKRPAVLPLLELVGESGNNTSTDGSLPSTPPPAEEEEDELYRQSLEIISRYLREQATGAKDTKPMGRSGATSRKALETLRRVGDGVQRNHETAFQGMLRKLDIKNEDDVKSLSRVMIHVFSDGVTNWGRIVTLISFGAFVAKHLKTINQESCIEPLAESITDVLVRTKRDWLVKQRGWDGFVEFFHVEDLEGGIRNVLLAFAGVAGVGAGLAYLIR

Bcl-xL [2] = target: T1, Bcl-xL; assay: biochemical

Row | Molecule | IC50 (HIV-1 NL4-3) [nM] | IC50 (HIV-1 HC4) [nM] | IC50 (HIV-1 CC 1/85) [nM] | IC50 (HIV-1 DJ258) [nM] | IC50 (HIV) [nM] | half-life at 50 μm (in vitro) [h] | half-life at 50 μm (proteinase K) [h] | Ki (Bcl-xL [1]) [nM] | Kd (Mcl-1) [nM] | Kd (Bcl-xL [2]) [nM]
1 | enfuvirtide | 700 ± 100 | 250 ± 20 | 1400 ± 400 | 330 ± 60 | ~1 |  |  |  |  | 
2 | CC[C@H](C)[C@H](NC(=O)C[C@H](CCC(=O)O)NC(=O)[C@H](CCCNC(=N)N)NC(=O)[C@H](C)NC(=O)[C@H](Cc1c[nH]c2ccccc12)NC(=O)C[C@H](CCC(N)=O)NC(=O)[C@H](CCC(=O)O)NC(=O)[C@H](CCC(=O)O)NC(C)=O)C(=O)NCC(=O)N[C@@H](C)CC(=O)N[C@@H](CCC(N)=O)C(=O)N[C@@H](CC(C)C)C(=O)N[C@@H](CCCNC(=N)N)C(=O)N[C@@H](CCCNC(=N)N)CC(=O)N[C@@H](CCSC)C(=O)N[C@@H](C)C(=O)N[C@@H](CC(=O)O)CC(=O)N[C@@H](CC(=O)O)C(=O)N[C@@H](CC(C)C)C(=O)N[C@@H](CC(N)=O)C(=O)N[C@@H](C)CC(=O)N[C@@H](CCC(N)=O)C(=O)N[C@@H](Cc1ccc(O)cc1)C(=O)N[C@@H](CCC(=O)O)CC(=O)N[C@@H](CCCNC(=N)N)C(=O)N[C@@H](CCCNC(=N)N)C(N)=O [3′] |  |  |  |  |  | 0.0583 | 2.83 |  |  | 
3 | CC[C@H](C)[C@H](NC(=O)[C@H](CCC(=O)O)NC(=O)C[C@H](CCCNC(=N)N)NC(=O)[C@H](C)NC(=O)[C@H](Cc1c[nH]c2ccccc12)NC(=O)C[C@H](CCC(N)=O)NC(=O)[C@H](CCC(=O)O)NC(=O)[C@H](CCC(=O)O)NC(C)=O)C(=O)NCC(=O)N[C@@H](C)CC(=O)N[C@@H](CCC(N)=O)C(=O)N[C@@H](CC(C)C)C(=O)N[C@@H](CCCNC(=N)N)CC(=O)N[C@@H](CCCNC(=N)N)C(=O)N[C@@H](CCSC)C(=O)N[C@@H](C)C(=O)N[C@@H](CC(=O)O)CC(=O)N[C@@H](CC(=O)O)C(=O)N[C@@H](CC(C)C)C(=O)N[C@@H](CC(N)=O)CC(=O)N[C@@H](C)C(=O)N[C@@H](CCC(N)=O)C(=O)N[C@@H](Cc1ccc(O)cc1)C(=O)N[C@@H](CCC(=O)O)CC(=O)N[C@@H](CCCNC(=N)N)C(=O)N[C@@H](CCCNC(=N)N)C(N)=O [2′] |  |  |  |  |  | 1.67 | > 50 | < 1 | 110 | 2.2
